Entries after “also recorded” stand apart in the source; their conditions may differ.

Data on one compound can be found in publication PMC7096398, “Oxytocin Receptors Regulate Social Preference in Zebrafish” (Scientific Reports, 2020).

For experiment [1], the target named is T1, Oxtr (Danio rerio, UniProt E4W699).
T1 construct: host or cells: HEK293
T1 sequence (E4W699 1-388): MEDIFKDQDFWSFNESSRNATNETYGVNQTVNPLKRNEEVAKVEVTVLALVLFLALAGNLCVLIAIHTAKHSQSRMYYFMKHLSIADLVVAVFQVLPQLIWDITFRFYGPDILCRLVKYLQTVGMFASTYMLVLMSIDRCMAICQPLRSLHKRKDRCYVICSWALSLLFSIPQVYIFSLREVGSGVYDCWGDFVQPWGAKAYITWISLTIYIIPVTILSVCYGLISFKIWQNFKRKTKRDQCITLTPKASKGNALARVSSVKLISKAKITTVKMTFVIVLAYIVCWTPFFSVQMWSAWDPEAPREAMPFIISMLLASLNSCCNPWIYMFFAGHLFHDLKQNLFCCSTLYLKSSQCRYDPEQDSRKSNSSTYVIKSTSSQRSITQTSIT
Put plainly: Inositol phosphate accumulation assay, antagonism of 1 μM zVP at Oxtr. The settings on record: stimulated with zVP. It is filed as cell-based, zebrafish. As to the method:
(§1) The receptor constructs were ordered from GeneScript and subcloned into a pcDNA3.1/CT-GFP-TOPO vector. The coding sequences of the GenBank entries NM_001199370.1 (oxtr), NM_001199369.1 (oxtrl), NM_001301114.1 (avpr1aa), and NM_001297676.1 (avpr1ab) were used for synthesis. The stop codons were removed, and an additional […] was added to facilitate hybrid protein expression with GFP in frame from the vector. The GCCACC Kozak sequence was inserted before the start codons. After transformation of the plasmid constructs into TOP10 competent cells (Thermo Fisher Scientific), the Maxiprep (Thermo Fisher Scientific) method was used to amplify the plasmids for transfection.
(§2) The Inositol phosphate accumulation assay was performed according to previous descriptions to measure the potency of different ligands for zebrafish different oxytocin related receptors. Each receptor construct was transfected into HEK293 cells using Lipofectamine 2000 (Thermo Fisher Scientific). Myo2-^3H-inositol (PerkinElmer) at 3 μCi/mL was added the day after transfection. […] Samples were mixed with OptiPhase HiSafe (PerkinElmer Waltham, MA, USA) and ^3H radioactivity was measured with a Tri-Carb 2910TR liquid scintillation counter (PerkinElmer Waltham, MA, USA). […]

Experiment [2] addresses T2, Oxtrl (Danio rerio, UniProt E4W698).
T2 construct: host or cells: HEK293
T2 sequence (E4W698 1-382): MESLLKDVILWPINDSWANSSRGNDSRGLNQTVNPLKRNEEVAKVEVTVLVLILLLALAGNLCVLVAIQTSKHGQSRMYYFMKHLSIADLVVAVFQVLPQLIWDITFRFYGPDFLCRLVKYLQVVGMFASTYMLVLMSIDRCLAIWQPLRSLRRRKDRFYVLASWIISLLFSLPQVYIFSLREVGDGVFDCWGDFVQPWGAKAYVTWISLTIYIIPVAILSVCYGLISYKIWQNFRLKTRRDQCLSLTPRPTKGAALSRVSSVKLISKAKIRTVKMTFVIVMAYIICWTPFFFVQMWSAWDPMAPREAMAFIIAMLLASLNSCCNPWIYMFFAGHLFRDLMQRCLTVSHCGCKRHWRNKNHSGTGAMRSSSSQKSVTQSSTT
Put plainly: Inositol phosphate accumulation assay, antagonism of 1 μM zVP at Oxtrl. The class given is cell-based, zebrafish. The settings on record: stimulated with zVP. As to the method:
as §1, §2

Experiment [3] relates to monkeys. To be noted: cited from earlier work.
Experiment [4] concerns adult zebrafish. Put plainly: Novel tank diving in adult zebrafish. It is filed as in vivo, zebrafish (Danio rerio). As to the method: Adult and larval behavioural testing was performed between 9 AM and 4 PM. All fish were fed prior to and after experiments, and larvae were also given an additional feed at midday. Adult fish were of a 1:1 sex ratio, and focal fish and stimulus fish were size-matched. Adult fish and shoals were filmed using a web camera and Debut Video Capture Software (NCH Software, Greenwood Village, USA), and videos were analysed using EthoVision version 11 (Noldus, Wageningen, the Netherlands).
A novel tank diving test was executed individually in order to examine the effect of the antagonist on anxiety in zebrafish. Anxiety-like behaviour in zebrafish is evident in a tendency to move towards the bottom of novel environments. The novel tank diving test used here has been described elsewhere. In brief, the same procedure as for the shoaling test described above was used, except that fish were housed in groups of 4–6 individuals 24 hours prior to the experiment in order to keep netting and potential stress to a minimum, and each fish was placed the test tank individually. A total of 20 vehicle-treated fish and 20 antagonist-treated fish were tested.
All data for the social preference and novel tank diving experiments in adults were extracted as processed means per minute from EthoVision. For the shoaling experiments, raw data was exported from EthoVision, and then post-processed by an in-house script written in Python 3.4, in order to compute IFD, NND, and FND as described elsewhere. For timelines, repeated measures analysis of variance (RM-ANOVA) was used. For pairwise comparisons of total means between groups, Student’s T-tests were used.

For experiment [5], the target named is T3, Avpr1aa (Danio rerio, UniProt A0A8M1P1H3).
T3 sequence (A0A8M1P1H3 1-379): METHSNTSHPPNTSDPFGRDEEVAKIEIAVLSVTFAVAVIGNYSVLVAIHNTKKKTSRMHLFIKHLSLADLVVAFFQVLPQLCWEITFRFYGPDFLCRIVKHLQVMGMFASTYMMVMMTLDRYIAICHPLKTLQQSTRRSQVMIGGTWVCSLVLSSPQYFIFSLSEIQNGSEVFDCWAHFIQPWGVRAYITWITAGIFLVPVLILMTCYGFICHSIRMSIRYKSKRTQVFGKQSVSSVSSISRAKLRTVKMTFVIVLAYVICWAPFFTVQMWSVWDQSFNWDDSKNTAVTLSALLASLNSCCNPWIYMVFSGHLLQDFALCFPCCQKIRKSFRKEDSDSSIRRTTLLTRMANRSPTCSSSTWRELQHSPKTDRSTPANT
Description: Inositol phosphate accumulation assay, antagonism of 1 μM zVP at Avpr1aa. To be noted: stimulated with agonist; antagonist up to 1 μM. It is filed as cell-based, zebrafish. As to the method: as §1, §2

For `Cc1ccccc1N1CCN(S(=O)(=O)C[C@]23CC[C@H](C[C@@H]2NC(=O)[C@@H](N)CCS(C)(=O)=O)C3(C)C)CC1` [L-368,899], in experiment [1], the “Antagonism at Oxtr, in words” value is given as “able to block zVP activation; also recorded: specifically inhibited; also recorded: potently antagonised”. Further, in experiment [2], the “Antagonism at Oxtrl, in words” value is listed as “able to block zVP activation; also recorded: specifically inhibited; also recorded: potently antagonised”. Besides, the “Behavioural effects one hour after treatment” value in experiment [3] is given as “robust behavioural effects”. Besides, the “Anxiety behaviour: Distance to bottom” value in experiment [4] (adult novel tank diving, i.p., 1 h before test, mean ± SEM, n = 20, vehicle 2.7 ± 0.4) worked out at 3.1 ± 0.4 cm. Further, the “Locomotion: Velocity” value in experiment [4] (adult novel tank diving, i.p., 1 h before test, mean ± SEM, n = 20, vehicle 3.1 ± 0.2, p = 0.47) is recorded as 2.9 ± 0.2 cm/s. The “Anxiety behaviour: Duration in top zone” value in experiment [4] (adult novel tank diving, i.p., 1 h before test, mean ± SEM, n = 20, vehicle 7.0 ± 2.4) turned out to be 8.8 ± 2.4 s/min. For the same compound, the “Locomotion: Distance” value in experiment [4] (adult novel tank diving, i.p., 1 h before test, mean ± SEM, n = 20, vehicle 186 ± 11, p = 0.49) stood at 174 ± 14 cm/min. Besides, in experiment [4] (adult novel tank diving, i.p., 1 h before test, mean ± SEM, n = 20, vehicle 327 ± 58), the “Anxiety behaviour: Latency to top zone” value amounted to 387 ± 81 s. Also, the “Anxiety, in words” value in experiment [4] (adults, antagonist vs vehicle) is listed as “did not affect anxiety; also recorded: no differences in any of the anxiety parameters”. Further, the “Activity parameters vs vehicle, novel tank diving test” value in experiment [4] (average distance p = 0.49, average velocity p = 0.47) is given as “no significant differences”. In addition, in experiment [5], the “Antagonism at Avpr1aa, in words” value is on record as “did not block the response; also recorded: without reducing the effect of the peptide agonist”.
